# Molecular target: Human GPR35 (Homo sapiens, UniProt Q9HC97, S294R)
# Assay: Alternative Beta-Arrestin Assay (JumpIn 294R Tango U2OS cells, LiveBLAzer-FRET B/G)
# Type: cell-based
# Conditions: Human GPR35 expressing JumpIn 294R Tango U2OS cells, 5 hours treatment
# Summary of the method: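 Beta-arrestin recruitment measured as FRET ratio change using CCF4-AM loading for 2 h, following 5-hour compound treatment of GPR35 (S294R) JumpIn Tango U2OS cells. Zaprinast served as positive control; EC50 values from four-parameter dose-response fits.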
# Chain of Human GPR35 (Q9HC97 whole entry S294R): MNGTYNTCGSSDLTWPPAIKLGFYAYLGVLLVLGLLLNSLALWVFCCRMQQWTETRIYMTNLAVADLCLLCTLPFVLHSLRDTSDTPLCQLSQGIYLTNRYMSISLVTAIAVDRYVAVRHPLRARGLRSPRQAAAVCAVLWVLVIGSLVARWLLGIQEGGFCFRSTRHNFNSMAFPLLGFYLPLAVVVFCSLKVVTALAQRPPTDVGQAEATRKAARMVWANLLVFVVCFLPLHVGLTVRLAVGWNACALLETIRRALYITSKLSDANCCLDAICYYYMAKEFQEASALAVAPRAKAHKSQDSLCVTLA
row,EC50,SMILES
1,≤ 10 µM,"CCOc1cc(-c2cccc([C@@H]3C[C@H]3C(=O)O)c2)ccc1-c1nc2[nH]nnc2c(=O)[nH]1 (single isomer, unassigned) [Compound 278, trans-2-(3′-ethoxy-4′-(7-oxo-6,7-dihydro-3H-[1,2,3]triazolo[4,5-d]pyrimidin-5-yl)-[1,1′-biphenyl]-3-yl)cyclopropane-1-carboxylic acid]"
2,≤ 10 µM,"CCOc1cc(-c2ccc(OC)c(CC(C)C(=O)O)c2)ccc1-c1nc2[nH]nnc2c(=O)[nH]1 (stereo not shown) [Compound 316, 3-(3′-ethoxy-4-methoxy-4′-(7-oxo-6,7-dihydro-3H-[1,2,3]triazolo[4,5-d]pyrimidin-5-yl)-[1,1′-biphenyl]-3-yl)-2-methylpropanoic acid]"
3,≤ 10 µM,"CCOc1cc(-c2cccc(OC(C(=O)O)c3ccccc3)c2)ccc1-c1nc2[nH]nnc2c(=O)[nH]1 (stereo not shown) [Compound 249, 2-((3′-ethoxy-4′-(7-oxo-6,7-dihydro-3H-[1,2,3]triazolo[4,5-d]pyrimidin-5-yl)-[1,1′-biphenyl]-3-yl)oxy)-2-phenylacetic acid]"
4,≤ 10 µM,"CCOc1cc(-c2cccc(CC(C)C(=O)O)c2)ccc1-c1nc2[nH]nnc2c(=O)[nH]1 (single isomer, unassigned) [Compound 312, 3-(3′-ethoxy-4′-(7-oxo-6,7-dihydro-3H-[1,2,3]triazolo[4,5-d]pyrimidin-5-yl)-[1,1′-biphenyl]-3-yl)-2-methylpropanoic acid]"
5,≤ 10 µM,"CCOc1cc(-c2cccc(C(=O)O)c2F)ccc1-c1nc2[nH]nnc2c(=O)[nH]1 [Compound 186, 3′-ethoxy-2-fluoro-4′-(7-oxo-6,7-dihydro-3H-[1,2,3]triazolo[4,5-d]pyrimidin-5-yl)-[1,1′-biphenyl]-3-carboxylic acid]"
6,≤ 10 µM,"CCOc1cc(-c2cccc(O[C@H](CC)C(=O)O)c2)ccc1-c1nc2[nH]nnc2c(=O)[nH]1 (single isomer, unassigned) [Compound 253]"
7,≤ 10 µM,"CCOc1cc(-c2cc(C(=O)O)cs2)ccc1-c1nc2[nH]nnc2c(=O)[nH]1 [Compound 190, 5-(3-ethoxy-4-(7-oxo-6,7-dihydro-3H-[1,2,3]triazolo[4,5-d]pyrimidin-5-yl)phenyl)thiophene-3-carboxylic acid]"
8,≤ 10 µM,"CCOc1cc(-c2cccc(CC(CC)C(=O)O)c2)ccc1-c1nc2[nH]nnc2c(=O)[nH]1 (single isomer, unassigned) [Compound 240, 2-((3′-ethoxy-4′-(7-oxo-6,7-dihydro-3H-[1,2,3]triazolo[4,5-d]pyrimidin-5-yl)-[1,1′-biphenyl]-3-yl)methyl)butanoic acid]"
9,≤ 10 µM,"CCOc1cc(-c2cccc(C(C)(C)C(=O)O)c2)ccc1-c1nc2[nH]nnc2c(=O)[nH]1 [Compound 298, 2-(3′-ethoxy-4′-(7-oxo-6,7-dihydro-3H-[1,2,3]triazolo[4,5-d]pyrimidin-5-yl)-[1,1′-biphenyl]-3-yl)-2-methylpropanoic acid]"
10,≤ 10 µM,"CCCNc1cc(-c2nc3[nH]nnc3c(=O)[nH]2)ccc1-c1ccc(C(=O)O)cc1 [Compound 291, 4′-(7-oxo-6,7-dihydro-3H-[1,2,3]triazolo[4,5-d]pyrimidin-5-yl)-2′-(propylamino)-[1,1′-biphenyl]-4-carboxylic acid]"
11,≤ 10 µM,"CCOC(=O)c1ccc(-c2ccc(-c3nc4[nH]nnc4c(=O)[nH]3)c(OCC)c2)cc1 [Compound 191, ethyl 3′-ethoxy-4′-(7-oxo-6,7-dihydro-3H-[1,2,3]triazolo[4,5-d]pyrimidin-5-yl)-[1,1′-biphenyl]-4-carboxylate]"
12,≤ 10 µM,"CCOc1cc(-c2cccc(C[C@@H](OC)C(=O)O)c2)ccc1-c1nc2[nH]nnc2c(=O)[nH]1 [Compound 285, (R)-3-(3′-ethoxy-4′-(7-oxo-6,7-dihydro-3H-[1,2,3]triazolo[4,5-d]pyrimidin-5-yl)-[1,1′-biphenyl]-3-yl)-2-methoxypropanoic acid]"
13,≤ 10 µM,"CCOc1cc(-c2cc(O)cc(OC(C)C(=O)O)c2)ccc1-c1nc2[nH]nnc2c(=O)[nH]1 (stereo not shown) [Compound 276, 2-((3′-ethoxy-5-hydroxy-4′-(7-oxo-6,7-dihydro-3H-[1,2,3]triazolo[4,5-d]pyrimidin-5-yl)-[1,1′-biphenyl]-3-yl)oxy)propanoic acid]"
14,≤ 10 µM,"CCOc1cc(-c2ccc(C)c(OC(CC)C(=O)O)c2)ccc1-c1nc2[nH]nnc2c(=O)[nH]1 (stereo not shown) [Compound 272, 2-((3′-ethoxy-4-methyl-4′-(7-oxo-6,7-dihydro-3H-[1,2,3]triazolo[4,5-d]pyrimidin-5-yl)-[1,1′-biphenyl]-3-yl)oxy)butanoic acid]"
15,≤ 10 µM,"CCOc1cc(-c2ccc(OCC(=O)O)cc2)ccc1-c1nc2[nH]nnc2c(=O)[nH]1 [Compound 211, 2-((3′-Ethoxy-4′-(7-oxo-6,7-dihydro-3H-[1,2,3]triazolo[4,5-d]pyrimidin-5-yl)-[1,1′-biphenyl]-4-yl)oxy)acetic acid]"
16,≤ 10 µM,"O=C(O)c1ccc(-c2ccc(-c3nc4[nH]nnc4c(=O)[nH]3)cc2NCc2ccccc2)cc1 [Compound 290, 2′-(benzylamino)-4′-(7-oxo-6,7-dihydro-3H-[1,2,3]triazolo[4,5-d]pyrimidin-5-yl)-[1,1′-biphenyl]-4-carboxylic acid]"
17,≤ 10 µM,"O=C(O)COc1cccc(-c2ccc(-c3nc4[nH]nnc4c(=O)[nH]3)c(OC3CCCC3)c2)c1 [Compound 216, 2-((3′-(Cyclopentyloxy)-4′-(7-oxo-6,7-dihydro-3H-[1,2,3]triazolo[4,5-d]pyrimidin-5-yl)-[1,1′-biphenyl]-3-yl)oxy)acetic acid]"
18,≤ 10 µM,"CCOc1cc(-c2ccc(OCCN3CCCC3)c(CC(C)C(=O)O)c2)ccc1-c1nc2[nH]nnc2c(=O)[nH]1 (stereo not shown) [Compound 300, 3-(3′-ethoxy-4′-(7-oxo-6,7-dihydro-3H-[1,2,3]triazolo[4,5-d]pyrimidin-5-yl)-4-(2-(pyrrolidin-1-yl)ethoxy)-[1,1′-biphenyl]-3-yl)-2-methylpropanoic acid]"
19,≤ 10 µM,"CCOc1cc(-c2cccc(CC(C)C(=O)OC)c2)ccc1-c1nc2[nH]nnc2c(=O)[nH]1 (stereo not shown) [Compound 310, methyl 3-(3′-ethoxy-4′-(7-oxo-6,7-dihydro-3H-[1,2,3]triazolo[4,5-d]pyrimidin-5-yl)-[1,1′-biphenyl]-3-yl)-2-methylpropanoate]"
20,≤ 10 µM,"CCOc1cc(-c2ccc(O)c(OCC(=O)O)c2)ccc1-c1nc2[nH]nnc2c(=O)[nH]1 [Compound 281, 2-((3′-ethoxy-4-hydroxy-4′-(7-oxo-6,7-dihydro-3H-[1,2,3]triazolo[4,5-d]pyrimidin-5-yl)-[1,1′-biphenyl]-3-yl)oxy)acetic acid]"
21,≤ 10 µM,"O=C(O)c1ccc(-c2ccc(-c3nc4[nH]nnc4c(=O)[nH]3)c(OC3CCCC3)c2)c(O)c1 [Compound 202, 3′-(Cyclopentyloxy)-2-hydroxy-4′-(7-oxo-6,7-dihydro-3H-[1,2,3]triazolo[4,5-d]pyrimidin-5-yl)-[1,1′-biphenyl]-4-carboxylic acid]"
22,≤ 10 µM,"CCOc1cc(-c2cccc(/C=C(/C)C(=O)O)c2)ccc1-c1nc2[nH]nnc2c(=O)[nH]1 (single isomer, unassigned) [Compound 236, (Z)-3-(3′-ethoxy-4′-(7-oxo-6,7-dihydro-3H-[1,2,3]triazolo[4,5-d]pyrimidin-5-yl)-[1,1′-biphenyl]-3-yl)-2-methylacrylic acid]"

# From patent US11053251B2, “GPR35 modulators” (Prometheus Biosciences, Inc., priority 2019, dated 2021)
